Holding throughout (format): functional
The subject of test [1] is Staphylococcus aureus. The test can be described thus: Antibacterial activity against Staphylococcus aureus 1862 assessed as inhibition of bacterial growth incubated for 18 hrs by broth microdilution method.
The subject of test [2] is Staphylococcus aureus. In words: Antibacterial activity against Staphylococcus aureus 991 assessed as inhibition of bacterial growth incubated for 18 hrs by broth microdilution method.
For another test, the system named is Micrococcus luteus. The test can be described thus: Antibacterial activity against Micrococcus luteus ML01 assessed as inhibition of bacterial growth incubated for 18 hrs by broth microdilution method.
Test [3] concerns Enterococcus faecalis. The test can be described thus: Antibacterial activity against Enterococcus faecalis ATCC 29212 assessed as inhibition of bacterial growth incubated for 18 hrs by broth microdilution method.
Test [4] has as its system Staphylococcus aureus. In words: Antibacterial activity against Staphylococcus aureus 16339 assessed as inhibition of bacterial growth incubated for 18 hrs by broth microdilution method.
In test [5] the test system is Staphylococcus aureus. In words: Antibacterial activity against Staphylococcus aureus ATCC 29213 assessed as inhibition of bacterial growth incubated for 18 hrs by broth microdilution method.
Test [6] concerns Staphylococcus aureus. In words: Antibacterial activity against Staphylococcus aureus 718306 assessed as inhibition of bacterial growth incubated for 18 hrs by broth microdilution method.
Test [7] deals with Staphylococcus aureus. In words: Antibacterial activity against Staphylococcus aureus 6917 assessed as inhibition of bacterial growth incubated for 18 hrs by broth microdilution method.
In another test the test system is Enterococcus gallinarum. The test can be described thus: Antibacterial activity against Enterococcus gallinarum 5F52C assessed as inhibition of bacterial growth incubated for 18 hrs by broth microdilution method.
Another test deals with Bacillus subtilis. The test can be described thus: Antibacterial activity against Bacillus subtilis BS01 assessed as inhibition of bacterial growth incubated for 18 hrs by broth microdilution method.
Test [8] relates to Staphylococcus aureus. The test can be described thus: Antibacterial activity against Staphylococcus aureus 745324 assessed as inhibition of bacterial growth incubated for 18 hrs by broth microdilution method.
The test system of test [9] is Enterococcus faecium. The test can be described thus: Antibacterial activity against Enterococcus faecium 36235 assessed as inhibition of bacterial growth incubated for 18 hrs by broth microdilution method.
The test system of test [10] is Enterococcus faecium. The test can be described thus: Antibacterial activity against Enterococcus faecium 36711 assessed as inhibition of bacterial growth incubated for 18 hrs by broth microdilution method.
For test [11], the system named is Staphylococcus aureus. The test can be described thus: Antibacterial activity against Staphylococcus aureus 669 assessed as inhibition of bacterial growth incubated for 18 hrs by broth microdilution method.
Test [12] deals with Enterococcus faecium. In words: Antibacterial activity against Enterococcus faecium 35682 assessed as inhibition of bacterial growth incubated for 18 hrs by broth microdilution method.
Test [13] relates to Staphylococcus aureus. In words: Antibacterial activity against methicillin-resistant Staphylococcus aureus assessed as inhibition of bacterial growth incubated for 18 hrs by broth microdilution method.
For a further test, the system named is Staphylococcus simulans. The test can be described thus: Antibacterial activity against Staphylococcus simulans AKA1 assessed as inhibition of bacterial growth incubated for 18 hrs by broth microdilution method.
In test [14] the test system is Staphylococcus aureus. The test can be described thus: Antibacterial activity against Staphylococcus aureus GDE4P037P assessed as inhibition of bacterial growth incubated for 18 hrs by broth microdilution method.
Test [15] concerns Enterococcus faecalis. In words: Antibacterial activity against Enterococcus faecalis 36950 assessed as inhibition of bacterial growth incubated for 18 hrs by broth microdilution method.
Test [16] deals with Staphylococcus aureus. In words: Antibacterial activity against Staphylococcus aureus 3090 assessed as inhibition of bacterial growth incubated for 18 hrs by broth microdilution method.
In test [17] the test system is Staphylococcus aureus. In words: Antibacterial activity against Staphylococcus aureus 16162 assessed as inhibition of bacterial growth incubated for 18 hrs by broth microdilution method.

≈ marks a conversion by molar mass, not a printed value.

Regarding `CC1(C)S[C@@H]2[C@H](NC(=O)[C@H](N)c3ccccc3)C(=O)N2[C@H]1C(=O)O` [AMPICILLIN], the MIC is 4 µg/mL (≈ 11.4 µM) with Staphylococcus aureus [1]; 4 µg/mL (≈ 11.4 µM) in the test on Staphylococcus aureus [2]; 0.13 µg/mL (≈ 0.372 µM) in the test on Micrococcus luteus; 1 µg/mL (≈ 2.86 µM) in the test with Enterococcus faecalis [3]; 64 µg/mL (≈ 183 µM) in the test on Staphylococcus aureus [4]; 1 µg/mL (≈ 2.86 µM) in the test with Staphylococcus aureus [5]. Moreover, the MIC is more than 64 µg/mL with Staphylococcus aureus [6]; 64 µg/mL (≈ 183 µM) in the test on Staphylococcus aureus [7]; 8 µg/mL (≈ 22.9 µM) in the test with Enterococcus gallinarum; 0.125 µg/mL (≈ 0.358 µM) in the test on Bacillus subtilis; 4 µg/mL (≈ 11.4 µM) in the test on Staphylococcus aureus [8]; more than 64 µg/mL in the test on Enterococcus faecium [9]. In addition, the MIC was more than 64 µg/mL in the test on Enterococcus faecium [10]; 8 µg/mL (≈ 22.9 µM) in the test with Staphylococcus aureus [11]; more than 64 µg/mL with Enterococcus faecium [12]; 32 µg/mL (≈ 91.6 µM) with Staphylococcus aureus [13]; more than 64 µg/mL with Staphylococcus simulans.

For the molecule `CCCc1c(Cl)c(O)c(Cl)c2c1Oc1c(Cl)c(O)c(Cl)c(CCC)c1C(=O)O2`, the MIC in the test on Staphylococcus aureus [1], in the test with Staphylococcus aureus [2], in the test on Micrococcus luteus, with Enterococcus faecalis [3], in the test with Staphylococcus aureus [4] and in the test on Staphylococcus aureus [14] was 2 µg/mL (≈ 4.29 µM) in each case. For the same molecule, the MIC in the test on Staphylococcus aureus [5] worked out at 2 µg/mL (≈ 4.29 µM); with Staphylococcus aureus [6], 4 µg/mL (≈ 8.58 µM); in the test on Enterococcus faecalis [15], 1 µg/mL (≈ 2.15 µM); in the test with Staphylococcus aureus [7], 8 µg/mL (≈ 17.2 µM); with Enterococcus gallinarum, 2 µg/mL (≈ 4.29 µM); in the test on Bacillus subtilis, 0.25 µg/mL (≈ 0.536 µM). For the same molecule, the MIC was determined as 4 µg/mL (≈ 8.58 µM) in the test on Staphylococcus aureus [16]; 4 µg/mL (≈ 8.58 µM) with Staphylococcus aureus [8]; 8 µg/mL (≈ 17.2 µM) in the test with Enterococcus faecium [9]; 4 µg/mL (≈ 8.58 µM) with Staphylococcus aureus [17]; 4 µg/mL (≈ 8.58 µM) in the test with Enterococcus faecium [10]; 2 µg/mL (≈ 4.29 µM) in the test with Staphylococcus aureus [11]. Besides, the MIC with Enterococcus faecium [12] was determined as 4 µg/mL (≈ 8.58 µM); with Staphylococcus aureus [13], 2 µg/mL (≈ 4.29 µM); with Staphylococcus simulans, 2 µg/mL (≈ 4.29 µM).

On to `CCCc1c(O)c(Oc2c(Cl)c(O)c(Cl)c(CCC)c2C(=O)OC)c(Cl)c(OC)c1Cl`, for which the MIC was 8 µg/mL (≈ 15.6 µM) in the test with Staphylococcus aureus [1]; 8 µg/mL (≈ 15.6 µM) in the test with Staphylococcus aureus [2]; 4 µg/mL (≈ 7.81 µM) with Micrococcus luteus; 16 µg/mL (≈ 31.2 µM) with Enterococcus faecalis [3]; 8 µg/mL (≈ 15.6 µM) in the test with Staphylococcus aureus [4]; 16 µg/mL (≈ 31.2 µM) in the test with Staphylococcus aureus [14]. The MIC with Staphylococcus aureus [5] came to 8 µg/mL (≈ 15.6 µM); in the test with Staphylococcus aureus [6], 16 µg/mL (≈ 31.2 µM); with Enterococcus faecalis [15], 4 µg/mL (≈ 7.81 µM); in the test with Staphylococcus aureus [7] it was 8 µg/mL (≈ 15.6 µM); in the test on Enterococcus gallinarum it was 4 µg/mL (≈ 7.81 µM); with Bacillus subtilis, 4 µg/mL (≈ 7.81 µM). The MIC in the test with Staphylococcus aureus [16], in the test on Staphylococcus aureus [8], with Enterococcus faecium [9], in the test with Staphylococcus aureus [17], with Enterococcus faecium [10] and with Staphylococcus aureus [11] was 8 µg/mL (≈ 15.6 µM) in each case. In addition, the MIC worked out at 16 µg/mL (≈ 31.2 µM) in the test with Enterococcus faecium [12], 8 µg/mL (≈ 15.6 µM) with Staphylococcus aureus [13] and 4 µg/mL (≈ 7.81 µM) with Staphylococcus simulans.

Turning to `CCCc1c(Cl)c(OC)cc2c1Oc1c(Cl)c(O)c(Cl)c(CCC)c1C(=O)O2`, the MIC came to 2 µg/mL (≈ 4.49 µM) with Staphylococcus aureus [1]; 2 µg/mL (≈ 4.49 µM) in the test with Staphylococcus aureus [2]; 1 µg/mL (≈ 2.24 µM) in the test on Micrococcus luteus; 2 µg/mL (≈ 4.49 µM) with Enterococcus faecalis [3]; 2 µg/mL (≈ 4.49 µM) in the test with Staphylococcus aureus [4]; 4 µg/mL (≈ 8.97 µM) in the test with Staphylococcus aureus [14]. Further, the MIC stood at 4 µg/mL (≈ 8.97 µM) in the test with Staphylococcus aureus [5]; 2 µg/mL (≈ 4.49 µM) with Staphylococcus aureus [6]; 0.5 µg/mL (≈ 1.12 µM) with Enterococcus faecalis [15]; 4 µg/mL (≈ 8.97 µM) with Staphylococcus aureus [7]; 2 µg/mL (≈ 4.49 µM) in the test on Enterococcus gallinarum; 0.5 µg/mL (≈ 1.12 µM) in the test with Bacillus subtilis. For the same molecule, the MIC in the test on Staphylococcus aureus [16] worked out at 2 µg/mL (≈ 4.49 µM); with Staphylococcus aureus [8] it was 4 µg/mL (≈ 8.97 µM); in the test with Enterococcus faecium [9] it was 4 µg/mL (≈ 8.97 µM); in the test with Staphylococcus aureus [17], 2 µg/mL (≈ 4.49 µM); in the test on Enterococcus faecium [10], 2 µg/mL (≈ 4.49 µM); with Staphylococcus aureus [11], 4 µg/mL (≈ 8.97 µM). For the same molecule, the figures for the MIC in the test with Enterococcus faecium [12], in the test with Staphylococcus aureus [13] and in the test with Staphylococcus simulans were 8 µg/mL (≈ 17.9 µM), 2 µg/mL (≈ 4.49 µM) and 0.5 µg/mL (≈ 1.12 µM), respectively.

The values above are taken from ChEMBL document CHEMBL5252555, “Antimicrobial Polyketides from the Marine-Derived Fungus Spiromastix sp. SCSIO F190” (J Nat Prod, 2023).
